Measured values from patent US20230174521A1, “NOVEL DIACYLGLYCERIDE O-ACYLTRANSFERASE 2 INHIBITORS” (Merck Sharp & Dohme LLC, priority 2020, published 2023).

Molecular target: T1, human DGAT2 (hDGAT2) (Homo sapiens, UniProt Q96PD7)
T1 construct: made in house; host or cells: Sf-9 insect cells (baculovirus infection); membrane fraction
T1 sequence (Q96PD7 1-388): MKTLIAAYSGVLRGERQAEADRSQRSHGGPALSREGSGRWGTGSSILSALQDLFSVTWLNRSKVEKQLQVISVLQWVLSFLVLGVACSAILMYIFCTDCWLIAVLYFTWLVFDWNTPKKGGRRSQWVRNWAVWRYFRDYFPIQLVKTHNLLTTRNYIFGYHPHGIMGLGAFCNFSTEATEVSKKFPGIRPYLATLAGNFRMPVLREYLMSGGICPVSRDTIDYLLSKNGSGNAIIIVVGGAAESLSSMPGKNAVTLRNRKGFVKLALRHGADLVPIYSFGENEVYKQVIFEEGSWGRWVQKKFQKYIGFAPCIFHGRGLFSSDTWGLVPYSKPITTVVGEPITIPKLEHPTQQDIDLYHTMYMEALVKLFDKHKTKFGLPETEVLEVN
Test: DGAT2 enzymatic activity assay (LC/MS/MS detection of 13C18-triolein, Sf-9 membrane prep)
Format: biochemical
Conditions: hDGAT2 Sf-9 membrane, 25 μM diolein, 5 μM 13C oleoyl-CoA, rt
Experimental: Sf-9 insect cells were maintained in Grace's insect cell culture medium with 10% heated-inactivated fetal bovine serum, 1% Pluronic F-68 and 0.14 μg/ml Kanamycine sulfate at 27° C. in a shaker incubator. After infection with untagged baculovirus expressing human DGAT2 (hDGAT2) at multiplicity of infection (MOI) 3 for 48 hours, cells were harvested. Cell pellets were suspended in buffer containing 10 mM Tris-HCl pH 7.5, 1 mM EDTA, 250 mM sucrose and Complete Protease Inhibitor Cocktail (Sigma Aldrich), and sonicated on ice. Cell debris were removed by centrifugation at 2000×g for 15 minutes. Membrane fractions were isolated by ultracentrifugation (100,000×g), resuspended in the same buffer, and frozen (−80° C.) for later use. The protein concentration was determined with the Pierce™ BCA Protein Assay Kit (Thermo Fisher Scientific). Expression of protein levels was analyzed by immunoblotting with rabbit anti-DGAT2 antibody (Abcam, ab102831) and donkey anti-rabbit IgG H&L Alexa Fluor® 647 (Abcam, ab150075) followed by detection using Typhoon FLA9000 (GE Healthcare).
LC/MS/MS analyses were performed using Thermal Fisher's LX4-TSQ Vantage system. This system consists of an Agilent binary high-performance liquid chromatography (HPLC) pumps and a TSQ Vantage triple quadrupole MS/MS instrument. For each sample, 2 μL samples from the top organic layer of in-plate liquid-liquid extraction were injected onto a Thermo Betabasic C4 column (2.1 mm×20 mm, 5 μm particle size). The samples were then eluted using the following conditions; mobile phase: Isopropanol: acetonitrile/10 mM ammonium formate=50/35/15 (v/v/v), flow rate: 0.8 mL/min, temperature: 25° C. Data was acquired in positive mode using a heated electrospray ionization (HESI) interface. The operational parameters for the TSQ Vantage MS/MS instrument were a spray voltage of 3000 V, capillary temperature of 280° C., vaporizer temperature 400° C., sheath gas 45 arbitrary unit, Aux gas 10 arbitrary units, S-lens 165 and collision gas 1.0 mTorr. […] (SRM) chromatograms of ^13C18-triolein (Q1: 920.8>Q3:621.3) and internal standard ^13C21-triolein (Q1: 923.8>Q3:617.3) were collected for 33 sec. The peak area was integrated by Xcalibur Quan software. The ratio between the ^13C18triolein generated in the reaction and spiked in internal standard ^13C21-triolein was used to generate percentage inhibition and IC50 values. Compound percentage inhibition was calculated by the following formula: Inhibition %=1−[(compound response−low control)/(high control−low control)]×100%. Potent compounds were titrated and IC50 were calculated by 4 parameter sigmoidal curve fitting formula.
DGAT2 activity was determined by measuring the amount of enzymatic product ^13C18-triolein (^13C-1,2,3-Tri(cis-9-octadecenoyl)glycerol) using the membrane prep mentioned above. The assay was carried out in ABgene 384-well assay plates in a final volume of 25 μL at rt. The assay mixture contained the following: assay buffer (100 mM Tris.Cl, pH 7.0, 20 mM MgCl2, 5% ethanol), 25 μM of diolein, 5 μM of ^13C oleoyl-CoA and 8 ng/μL of DGAT2 membrane.

| Compound | IC50 |
| --- | --- |
| CCc1nn(-c2cccc(OC(F)F)c2)c2ccc(C(=O)NC3(C)CS(=O)(=O)C3)cc12 [Example 14, l-(3-(difluoromethoxy)phenyl)-3-ethyl-N-(3-methyl-1,1-dioxo-thietan-3-yl)indazole-5-carboxamide] | 11 nM |
| CC(C)c1nn(-c2cccc(OC(F)F)c2)c2ncc(C(=O)NC3(C)CS(=O)(=O)C3)cc12 [Example 12] | 9.3 nM |
| CC1(NC(=O)c2ccc3c(c2)c(C(F)F)nn3-c2cccc(OC(F)F)c2)CS(=O)(=O)C1 [Example 32, 1-(3-(difluoromethoxy)phenyl)-3-(difluoromethyl)-N-(3-methyl-1,1-dioxidothietan-3-yl)-1H-indazole-5-carboxamide] | 24 nM |
| CC1(NC(=O)c2cc(Cl)c3c(c2)c(C(C)(C)O)nn3-c2cccc(OC(F)F)c2)CS(=O)(=O)C1 [Example 35, 7-chloro-1-(3-(difluoromethoxy)phenyl)-3-(2-hydroxypropan-2-yl)-N-(3-methy1-l,1-dioxidothietan-3-yl)-1H-indazole-5-carboxamide] | 9.1 nM |
| C[C@]1(NC(=O)c2ccc3c(c2)c(-c2ccc(F)cc2)cn3-c2ccccc2Cl)CCS(=O)(=O)C1 [Example 5, (S)-1-(2-chlorophenyl)-3-(4-fluorophenyl)-N-(3-methyl-1,1-dioxidotetrahydrothiophen-3-yl)-1H-indole-5-carboxamide] | 115 nM |
| C[C@]1(NC(=O)c2ccc3c(c2)c(Oc2ccc(F)cc2)nn3-c2cccc(OC(F)F)c2)CCS(=O)(=O)C1 [Example 54, (S)-1-(3-(difluoromethoxy)phenyl)-3-(4-fluorophenoxy)-N-(3-methyl-1,1-dioxidotetrahydrothiophen-3-yl)-1H-indazole-5-carboxamide] | 0.3 nM |
| Cc1cc2c(cc1C(=O)NC1(C)CS(=O)(=O)C1)c(C(C)C)nn2-c1cccc(OC(F)F)c1 [Example 19] | 134 nM |
| CCC(O)c1nn(-c2cccc(OC(F)F)c2)c2ccc(C(=O)NC3(C)CS(=O)(=O)C3)cc12 (racemic) [Example 28, 1-(3-(difluoromethoxy)phenyl)-3-(1-hydroxypropyl)-N-(3-methyl-1,1-dioxidothietan-3-yl)-1H-indazole-5-carboxamide] | 78 nM |
| CC1(NC(=O)c2cnc3c(c2)c(C(C)(C)O)nn3-c2cc(OC(F)F)ccc2F)CS(=O)(=O)C1 [Example 41, l-(5-(difluoromethoxy)-2-fluorophenyl)-3-(2-hydroxypropan-2-yl)-N-(3-methyl-1,1-dioxidothietan-3-yl)-1H-pyrazolo[3,4-b]pyridine-5-carboxamide] | 25 nM |
| CC(O)c1nn(-c2cccc(OC(F)F)c2)c2ncc(C(=O)NC3(C)CS(=O)(=O)C3)cc12 (single isomer, unassigned) [Example 38b, l-(3-(difluoromethoxy)phenyl)-3-(l-hydroxyethyl)-N-(3-methyl-1,1-dioxidothietan-3-yl)-1H-pyrazolo[3,4-b]pyridine-5-carboxamide] | 54 nM |
| CC(C)c1nn(-c2cccc(OC(F)F)c2)c2ncc(C(=O)N[C@@]3(C)CCS(=O)(=O)C3)cc12 [Example 11, (S)-1-(3-(difluoromethoxy)phenyl)-3-isopropyl-N-(3-methyl-1,1-dioxidotetrahydrothlophen-3-yl)-1H-pyrazolo[3,4-b]pyridine-5-carboxamide] | 16 nM |
| CC1(NC(=O)c2cnc3c(c2)c(C(C)(C)O)nn3-c2cncc(OC(F)F)c2)CS(=O)(=O)C1 [Example 47, 1-(5-(difluoromethoxy)pyridin-3-yl)-3-(2-hydroxypropan-2-yl)-N-(3-methyl-1,1-dioxidothietan-3-yl)-1H-pyrazolo[3,4-b]pyridine-5-carboxamide] | 91 nM |
| CC(C)(O)Cc1nn(-c2cc(OC(F)F)ccc2F)c2ncc(C(=O)NC3(C)CS(=O)(=O)C3)cc12 [Example 24, l-(5-(difluoromethoxy)-2-fluorophenyl)-3-(2-hydroxy-2-methylpropyl)-N-(3-methyl-1,1-dioxidothietan-3-yl)-1H-pyrazolo[3,4-b]pyridine-5-carboxamide] | 6.4 nM |
| CC1(NC(=O)c2cnc3c(c2)c(C2(O)CCC2)nn3-c2cccc(OC(F)F)c2)CS(=O)(=O)C1 [Example 39, l-(3-(difluoromethoxy)phenyl)-3-(l-hydroxycyclobutyl)-N-(3-methyl-1,1-dioxidothietan-3-yl)-lH-pyrazolo[3,4-b]pyridine-5-carboxamide] | 15 nM |
| CC1(NC(=O)c2cc(F)c3c(c2)c(C(C)(C)O)nn3-c2cccc(OC(F)F)c2)CS(=O)(=O)C1 [Example 37, l-(3-(difluoromethoxy)phenyl)-7-fluoro-3-(2-hydroxypropan-2-yl)-N-(3-methyl-1,1-dioxidothietan-3-yl)-1H-indazole-5-carboxamide] | 15 nM |
| CC1(NC(=O)c2ccc3c(c2)c(C(O)C(F)(F)F)nn3-c2cccc(OC(F)F)c2)CS(=O)(=O)C1 (single isomer, unassigned) [Example 30a, 1-[3-(difluoromethoxy)phenyl]-N-(3-methyl-1,1-dioxo-thietan-3-yl)-3-(2,2,2-trifluoro-1-hydroxy-ethyl)indazole-5-carboxamide] | 84 nM |
| Cn1nccc1-c1nn(-c2cccc(OC(F)F)c2)c2ccc(C(=O)NC3(C)CS(=O)(=O)C3)cc12 [Example 1, 1-[3-(difluoromethoxy)phenyl]-N-(3-methyl-1,1-dioxo-thietan-3-yl)-3-(2-methylpyrazol-3-yl)indazole-5-carboxamide] | 46 nM |
| C[C@]1(NC(=O)c2cnc3c(c2)c(-c2ccc(F)cc2)nn3-c2cccc(OC(F)F)c2)CCS(=O)(=O)C1 [Example 4, (S)-1-(3-(difluoromethoxy)phenyl)-3-(4-fluorophenyl)-N-(3-methyl-l,1-dioxo-thiolan-3-yl)pyrazolo[3,4-b]pyridine-5-carboxamide] | 3.2 nM |
| CC1(NC(=O)c2ccc3c(c2)c(C(O)C(F)(F)F)nn3-c2cccc(OC(F)F)c2)CS(=O)(=O)C1 (racemic) [Example 30, 1-(3-(difluoromethoxy)phenyl)-N-(3-methyl-1,1-dioxidothietan-3-yl)-3-(2,2,2-trifluoro-1-hydroxyethyl)-1H-indazole-5-carboxamide] | 47 nM |
| C[C@]1(NC(=O)c2ccc3c(c2)c(-c2ccc(F)cc2)cn3-c2cccc(OC(F)F)c2)CCS(=O)(=O)C1 [Example 6, (S)-1-(3-(difluoromethoxy)phenyl)-3-(4-fluorophenyl)-N-(3 - methyl-1,1-dioxidotetrahydrothiophen-3-yl)-1H-indole-5-carboxamide] | 0.5 nM |
| CC1(NC(=O)c2ccc3c(c2)c(C(O)C2CC2)nn3-c2cccc(OC(F)F)c2)CS(=O)(=O)C1 (single isomer, unassigned) [Example 29a, 3-[cyclopropyl(hydroxy)methyl] - 1-[3-(difluoromethoxy)phenyl]-N-(3-methyl-1,1-dioxo-thietan-3-yl)indazole-5-carboxamide] | 5.1 nM |
| CC1(NC(=O)c2ccc3c(c2)c(C(O)C(F)F)nn3-c2cccc(OC(F)F)c2)CS(=O)(=O)C1 (racemic) [Example 31] | 94 nM |
| CC(C)(O)c1nn(-c2cccc(OC(F)F)c2)c2ccc(C(=O)N[C@@]3(C)CCS(=O)(=O)C3)cc12 [Example 33, (S)-1-(3-(difluoromethoxy)phenyl)-3-(2-hydroxypropan-2-yl)-N-(3-methyl-1,1-dioxidotetrahydrothiophen-3-yl)-1H-indazole-5-carboxamide] | 27 nM |
| CC(C)c1nn(-c2cncc(OC(F)F)c2)c2ncc(C(=O)NC3(C)CS(=O)(=O)C3)cc12 [Example 17] | 25 nM |
